Test results reported in patent publication US7183276B2, “Azole compounds” (Takeda Pharmaceutical Company Limited, priority 2002, dated 2007).

Columns and labels:
[1] = tested on: diabetic neuropathy model (streptozotocin-injected rats); experiment: Motor nerve conduction velocity in STZ diabetic neuropathy model rats; type: in vivo; settings: male SD rats, STZ 70 mg/kg diabetic neuropathy model; 3 mg/kg orally in 0.5% methyl cellulose; average value ± SD (n = 7–8)
Method: (§1) To 6-week-old male SD rats (CLEA Japan, Inc.) was injected 70 mg/kg body weight of streptozotocin (STZ) from the tail vein to form a diabetic neuropathy model.
(§2) After raising for one month, 3 mg/kg of compound (compound of Example 5 or Example 226) suspended in 0.5% methyl cellulose was orally administered to the rats. For the control group, a 0.5% aqueous methyl cellulose suspension free of the aforementioned compound was administered.
After the completion of the administration, the rats were anesthetized with Nembutal, the body temperature was maintained at a constant level using a hot plate at 37° C. and a desk lamp, needle electrodes were placed on the above-knee region and ankle, stimulated using Neuropack 2 (NIHON KOHDEN CORPORATION) principally at 1.6 mA and the evoked potential was detected from the plantar part. The Motor Nerve Conduction Velocity (MNCV) was calculated from the distance between different electrodes and latency difference of waveforms.

[2] = tested on: BDNF; experiment: BDNF content of ischiadic nerve of STZ diabetic neuropathy model rats (sandwich ELISA); type: in vivo; settings: male SD rats, STZ 70 mg/kg diabetic neuropathy model, 3 mg/kg orally in 0.5% methyl cellulose, ischiadic nerve supernatant, average value ± SD (n = 7–8)
Method: as §1, §2
After the evaluation of the nerve conduction velocity, the ischiadic nerve was taken from the rat, a lysis buffer (0.1M Tris-HCl buffer containing 1M sodium chloride, 2% BSA, 2 mM EDTA, 80 trypsin unit/L of aprotinin, pH 7.6) in a 20-fold amount of the wet weight of ischiadic nerve was added and the mixture was subjected to ultrasonication and centrifugal separation (15,000 rpm, 60 min.), and the BDNF content of the supernatant was measured.
The BDNF content was measured by sandwich ELISA Method using anti-BDNF polyclonal antibody (Promega) and biotinated anti-BDNF antibody (G1641, Promega). The results are shown in [Table 20].

SMILES | MNCV (Motor Nerve Conduction Velocity) [1] | BDNF (content of ischiadic nerve) [2] | melting point
CCOP(=O)(Cc1ccc(NC(=O)CCc2oc(-n3cnc4ccccc43)nc2-c2ccc(Cl)cc2)cc1)OCC [Example 5, 3-[2-(1H-benzimidazol-1-yl)-4-(4-chlorophenyl)-5-oxazolyl]-N-[4-(diethylphosphonomethyl)phenyl]propionamide] | 52.7 ± 5.0 m/s | 2.6 ± 0.7 ng/g | 159 to 160 °C
CCOP(=O)(Cc1ccc(NC(=O)CCCc2oc(-n3cnc4ccccc43)nc2-c2ccc(Cl)cc2)cc1)OCC [Example 226, 4-[2-(1H-benzimidazol-1-yl)-4-(4-chlorophenyl)-5-oxazolyl]-N-[(4-diethylphosphonomethyl)phenyl]butanamide] | 52.3 ± 2.4 m/s | 3.6 ± 0.4 ng/g | –
